Test results published in the NIST ThermoML archive (doi:10.1021/je0501843).
Values joined by “and” are separate entries in the source; they are usually repeats but may differ in a detail not shown here. Equal entries are not always repeated. ± gives the expanded uncertainty stated by the source.

Assay: molar heat capacity at constant volume
Conditions: Fluid (supercritical or subcritical phases), Vacuum adiabatic calorimetry

FC(F)C(F)(F)F [pentafluoroethane]
Conditions	molar heat capacity at constant volume
365 K, Mass density=773.3 kg/m3	119.04 ± 2.4 J/K/mol
365 K, Mass density=881.8 kg/m3	110.32 ± 2.2 J/K/mol
365 K, Mass density=973.8 kg/m3	106.41 ± 2.1 J/K/mol and 108.3 ± 2.2 J/K/mol
365 K, Mass density=1075 kg/m3	105.75 ± 2.1 J/K/mol
366 K, Mass density=403.6 kg/m3	108.16 ± 2.2 J/K/mol
366 K, Mass density=503 kg/m3	114.45 ± 2.3 J/K/mol
366 K, Mass density=585.5 kg/m3	119.7 ± 2.4 J/K/mol and 112.44 ± 2.3 J/K/mol
366 K, Mass density=688.1 kg/m3	116.48 ± 2.3 J/K/mol
366 K, Mass density=881.7 kg/m3	110.43 ± 2.2 J/K/mol
366 K, Mass density=973.7 kg/m3	107.62 ± 2.2 J/K/mol and 109.23 ± 2.2 J/K/mol
366 K, Mass density=1074.9 kg/m3	106.22 ± 2.1 J/K/mol
367 K, Mass density=403.6 kg/m3	110.86 ± 2.2 J/K/mol
367 K, Mass density=502.9 kg/m3	113.31 ± 2.3 J/K/mol
367 K, Mass density=585.4 kg/m3	117.62 ± 2.4 J/K/mol and 110.28 ± 2.2 J/K/mol
367 K, Mass density=688.1 kg/m3	115.05 ± 2.3 J/K/mol
367 K, Mass density=881.7 kg/m3	109.7 ± 2.2 J/K/mol
367 K, Mass density=973.6 kg/m3	107.58 ± 2.2 J/K/mol and 108.96 ± 2.2 J/K/mol
367 K, Mass density=1074.8 kg/m3	106.41 ± 2.1 J/K/mol
368 K, Mass density=403.5 kg/m3	111.09 ± 2.2 J/K/mol
368 K, Mass density=502.9 kg/m3	112.14 ± 2.3 J/K/mol
368 K, Mass density=585.4 kg/m3	115.53 ± 2.3 J/K/mol and 108.9 ± 2.2 J/K/mol
368 K, Mass density=688 kg/m3	113.01 ± 2.3 J/K/mol
368 K, Mass density=773.1 kg/m3	111.16 ± 2.2 J/K/mol
368 K, Mass density=881.6 kg/m3	109.62 ± 2.2 J/K/mol
368 K, Mass density=973.6 kg/m3	106.75 ± 2.1 J/K/mol and 108.55 ± 2.2 J/K/mol
368 K, Mass density=1074.7 kg/m3	106.17 ± 2.1 J/K/mol
369 K, Mass density=403.5 kg/m3	111.67 ± 2.2 J/K/mol
369 K, Mass density=502.9 kg/m3	113.46 ± 2.3 J/K/mol
369 K, Mass density=585.4 kg/m3	118.03 ± 2.4 J/K/mol and 110.31 ± 2.2 J/K/mol
369 K, Mass density=688 kg/m3	114.37 ± 2.3 J/K/mol
369 K, Mass density=773.1 kg/m3	112.65 ± 2.3 J/K/mol
369 K, Mass density=881.6 kg/m3	110.94 ± 2.2 J/K/mol
369 K, Mass density=973.5 kg/m3	108.28 ± 2.2 J/K/mol and 109.62 ± 2.2 J/K/mol
369 K, Mass density=1074.6 kg/m3	106.18 ± 2.1 J/K/mol
370 K, Mass density=403.5 kg/m3	111.22 ± 2.2 J/K/mol
370 K, Mass density=502.9 kg/m3	114.85 ± 2.3 J/K/mol
370 K, Mass density=585.4 kg/m3	118.04 ± 2.4 J/K/mol and 108.82 ± 2.2 J/K/mol
370 K, Mass density=687.9 kg/m3	116.1 ± 2.3 J/K/mol
370 K, Mass density=773 kg/m3	113 ± 2.3 J/K/mol
370 K, Mass density=881.5 kg/m3	111.13 ± 2.2 J/K/mol
370 K, Mass density=973.4 kg/m3	107.54 ± 2.2 J/K/mol and 109.82 ± 2.2 J/K/mol
370 K, Mass density=1074.5 kg/m3	106.55 ± 2.1 J/K/mol
371 K, Mass density=403.5 kg/m3	112.09 ± 2.3 J/K/mol
371 K, Mass density=502.9 kg/m3	116.62 ± 2.3 J/K/mol
371 K, Mass density=585.3 kg/m3	116.07 ± 2.3 J/K/mol and 110.26 ± 2.2 J/K/mol
371 K, Mass density=687.9 kg/m3	113.67 ± 2.3 J/K/mol
371 K, Mass density=773 kg/m3	111.62 ± 2.2 J/K/mol
371 K, Mass density=881.4 kg/m3	110.7 ± 2.2 J/K/mol
371 K, Mass density=973.3 kg/m3	107.44 ± 2.2 J/K/mol and 109.17 ± 2.2 J/K/mol
371 K, Mass density=1074.4 kg/m3	107.07 ± 2.1 J/K/mol
372 K, Mass density=403.5 kg/m3	114.04 ± 2.3 J/K/mol
372 K, Mass density=502.8 kg/m3	115.24 ± 2.3 J/K/mol
372 K, Mass density=585.3 kg/m3	115.84 ± 2.3 J/K/mol and 110.71 ± 2.2 J/K/mol
372 K, Mass density=687.9 kg/m3	112.84 ± 2.3 J/K/mol
372 K, Mass density=772.9 kg/m3	111.54 ± 2.2 J/K/mol
372 K, Mass density=881.4 kg/m3	110.3 ± 2.2 J/K/mol
372 K, Mass density=973.3 kg/m3	107.17 ± 2.2 J/K/mol and 108.04 ± 2.2 J/K/mol
372 K, Mass density=1074.3 kg/m3	106.22 ± 2.1 J/K/mol
373 K, Mass density=403.5 kg/m3	113.17 ± 2.3 J/K/mol
373 K, Mass density=502.8 kg/m3	117.01 ± 2.4 J/K/mol
373 K, Mass density=585.3 kg/m3	117.2 ± 2.4 J/K/mol and 110.91 ± 2.2 J/K/mol
373 K, Mass density=687.8 kg/m3	113.56 ± 2.3 J/K/mol
373 K, Mass density=772.9 kg/m3	111.8 ± 2.2 J/K/mol
373 K, Mass density=881.3 kg/m3	111.19 ± 2.2 J/K/mol
373 K, Mass density=973.2 kg/m3	107.61 ± 2.2 J/K/mol and 108.78 ± 2.2 J/K/mol
374 K, Mass density=403.4 kg/m3	114.45 ± 2.3 J/K/mol
374 K, Mass density=502.8 kg/m3	119.13 ± 2.4 J/K/mol
374 K, Mass density=585.3 kg/m3	117.5 ± 2.4 J/K/mol and 112.68 ± 2.3 J/K/mol
374 K, Mass density=687.8 kg/m3	114.16 ± 2.3 J/K/mol
374 K, Mass density=772.9 kg/m3	112.71 ± 2.3 J/K/mol
374 K, Mass density=881.2 kg/m3	112 ± 2.3 J/K/mol
374 K, Mass density=973.1 kg/m3	108.98 ± 2.2 J/K/mol and 110.07 ± 2.2 J/K/mol
375 K, Mass density=403.4 kg/m3	112.95 ± 2.3 J/K/mol
375 K, Mass density=502.8 kg/m3	117.92 ± 2.4 J/K/mol
375 K, Mass density=585.2 kg/m3	116.64 ± 2.3 J/K/mol and 110.73 ± 2.2 J/K/mol
375 K, Mass density=687.8 kg/m3	113.4 ± 2.3 J/K/mol
375 K, Mass density=772.8 kg/m3	112.33 ± 2.3 J/K/mol
375 K, Mass density=881.2 kg/m3	111 ± 2.2 J/K/mol
375 K, Mass density=973 kg/m3	108.25 ± 2.2 J/K/mol and 109.81 ± 2.2 J/K/mol
376 K, Mass density=403.4 kg/m3	116.08 ± 2.3 J/K/mol
376 K, Mass density=502.8 kg/m3	116.37 ± 2.3 J/K/mol
376 K, Mass density=585.2 kg/m3	116.55 ± 2.3 J/K/mol and 110.52 ± 2.2 J/K/mol
376 K, Mass density=687.7 kg/m3	113.56 ± 2.3 J/K/mol
376 K, Mass density=772.8 kg/m3	112.56 ± 2.3 J/K/mol
376 K, Mass density=881.1 kg/m3	110.12 ± 2.2 J/K/mol
376 K, Mass density=973 kg/m3	107.55 ± 2.2 J/K/mol and 109 ± 2.2 J/K/mol
377 K, Mass density=403.4 kg/m3	115.48 ± 2.3 J/K/mol
377 K, Mass density=502.7 kg/m3	117.28 ± 2.4 J/K/mol
377 K, Mass density=585.2 kg/m3	116.34 ± 2.3 J/K/mol and 111.62 ± 2.2 J/K/mol
377 K, Mass density=687.7 kg/m3	114.45 ± 2.3 J/K/mol
377 K, Mass density=772.7 kg/m3	113.06 ± 2.3 J/K/mol
377 K, Mass density=881.1 kg/m3	110.86 ± 2.2 J/K/mol
377 K, Mass density=972.9 kg/m3	108.42 ± 2.2 J/K/mol and 108.94 ± 2.2 J/K/mol
378 K, Mass density=403.4 kg/m3	113.28 ± 2.3 J/K/mol
378 K, Mass density=502.7 kg/m3	118.29 ± 2.4 J/K/mol
378 K, Mass density=585.1 kg/m3	116.82 ± 2.4 J/K/mol and 112.87 ± 2.3 J/K/mol
378 K, Mass density=687.6 kg/m3	114.84 ± 2.3 J/K/mol
378 K, Mass density=772.7 kg/m3	112.51 ± 2.3 J/K/mol
378 K, Mass density=881 kg/m3	111.43 ± 2.2 J/K/mol
378 K, Mass density=972.8 kg/m3	108.14 ± 2.2 J/K/mol and 110.22 ± 2.2 J/K/mol
379 K, Mass density=403.3 kg/m3	117.97 ± 2.4 J/K/mol
379 K, Mass density=502.7 kg/m3	115.21 ± 2.3 J/K/mol
379 K, Mass density=585.1 kg/m3	116.17 ± 2.3 J/K/mol and 112.3 ± 2.3 J/K/mol
379 K, Mass density=687.6 kg/m3	115.82 ± 2.3 J/K/mol
379 K, Mass density=772.6 kg/m3	113.55 ± 2.3 J/K/mol
379 K, Mass density=880.9 kg/m3	111.09 ± 2.2 J/K/mol
379 K, Mass density=972.7 kg/m3	107.65 ± 2.2 J/K/mol and 109.27 ± 2.2 J/K/mol
380 K, Mass density=403.3 kg/m3	116.02 ± 2.3 J/K/mol
380 K, Mass density=502.7 kg/m3	112.64 ± 2.3 J/K/mol
380 K, Mass density=585.1 kg/m3	111.27 ± 2.2 J/K/mol
380 K, Mass density=687.6 kg/m3	113.06 ± 2.3 J/K/mol
380 K, Mass density=772.6 kg/m3	113.31 ± 2.3 J/K/mol
380 K, Mass density=880.9 kg/m3	111.18 ± 2.2 J/K/mol
380 K, Mass density=972.6 kg/m3	107.71 ± 2.2 J/K/mol and 108.81 ± 2.2 J/K/mol
381 K, Mass density=403.3 kg/m3	114.7 ± 2.3 J/K/mol
381 K, Mass density=502.6 kg/m3	115.06 ± 2.3 J/K/mol
381 K, Mass density=585 kg/m3	114.39 ± 2.3 J/K/mol
381 K, Mass density=687.5 kg/m3	113.14 ± 2.3 J/K/mol
381 K, Mass density=772.5 kg/m3	113.07 ± 2.3 J/K/mol
381 K, Mass density=880.8 kg/m3	112.11 ± 2.3 J/K/mol
381 K, Mass density=972.6 kg/m3	113.29 ± 2.3 J/K/mol and 109.7 ± 2.2 J/K/mol
382 K, Mass density=403.3 kg/m3	116.14 ± 2.3 J/K/mol
382 K, Mass density=502.6 kg/m3	117.31 ± 2.4 J/K/mol
